Measured values from ChEMBL document CHEMBL1201862, “PubChem BioAssay data set” (2004).
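All cell lines were grown in 96-well plates and treated with compound for 48 hours. GI50: concentration for 50% inhibition of growth.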 Activity calls are given as the source filed them. Cut-off read from the data, not from the text of the source: active = GI50 up to about 1.1 µM and inactive = higher.

Assays:
Experiment in all cases: NCI tumour cell line growth inhibition, 48 h
SF-268 = tested on: SF-268
NCI-H226 = tested on: NCI-H226
CCRF-CEM = tested on: CCRF-CEM
UACC-257 = tested on: UACC-257
786-0 = tested on: 786-0
M14 = tested on: M14
TK-10 = tested on: TK-10
MDA-MB-435 = tested on: MDA-MB-435
NCI/ADR-RES = tested on: NCI/ADR-RES
IGROV-1 = tested on: IGROV-1
PC-3 = tested on: PC-3
OVCAR-3 = tested on: OVCAR-3
SNB-75 = tested on: SNB-75
ACHN = tested on: ACHN
COLO 205 = tested on: COLO 205
HCT-116 = tested on: HCT-116
A498 = tested on: A498
UACC-62 = tested on: UACC-62
KM12 = tested on: KM12
RXF 393 = tested on: RXF 393

Measured: GI50

CN(C)/C=N/[C@@H](C(=O)O)c1ccccc1
inactive: SF-268 > 100 µM | NCI-H226 > 100 µM | CCRF-CEM > 100 µM | UACC-257 > 100 µM | 786-0 > 100 µM | M14 > 100 µM | TK-10 > 100 µM | MDA-MB-435 > 100 µM | NCI/ADR-RES > 100 µM | IGROV-1 > 100 µM | PC-3 > 100 µM | OVCAR-3 > 100 µM | SNB-75 > 100 µM | ACHN > 100 µM | COLO 205 > 100 µM | HCT-116 > 100 µM | A498 > 100 µM | UACC-62 > 100 µM

O=C1OCC2(CO1)CC1C=CC2C1 (centres undefined)
inactive: SF-268 > 100 µM | NCI-H226 > 100 µM | KM12 > 100 µM | RXF 393 > 100 µM | UACC-257 > 100 µM | 786-0 > 100 µM | M14 > 100 µM | TK-10 > 100 µM | MDA-MB-435 > 100 µM | NCI/ADR-RES > 100 µM | IGROV-1 > 100 µM | PC-3 > 100 µM | OVCAR-3 > 100 µM | ACHN > 100 µM | COLO 205 > 100 µM | HCT-116 > 100 µM | A498 > 100 µM | UACC-62 > 100 µM

CCNC1=C(NC(=O)c2ccc(F)cc2)C(=O)c2ccccc2C1=O
inactive: SF-268 > 100 µM | NCI-H226 > 100 µM | KM12 49.9 µM | CCRF-CEM 35.8 µM | RXF 393 29.4 µM | UACC-257 15.8 µM | 786-0 > 100 µM | M14 24.5 µM | TK-10 > 100 µM | MDA-MB-435 18.2 µM | NCI/ADR-RES 27.3 µM | IGROV-1 31.6 µM | PC-3 17.3 µM | OVCAR-3 36.6 µM | SNB-75 62.2 µM | ACHN > 100 µM | COLO 205 26.7 µM | HCT-116 30.3 µM | UACC-62 15.1 µM

C=C(CO)[C@H]1CC/C(C)=C/CC/C(C)=C/C/C=C(\C)[C@H](O)C1
inactive: SF-268 22.2 µM | NCI-H226 30.5 µM | KM12 15.9 µM | CCRF-CEM > 100 µM | RXF 393 19.9 µM | UACC-257 19.7 µM | 786-0 17.3 µM | TK-10 20.6 µM | MDA-MB-435 18.6 µM | NCI/ADR-RES 27.3 µM | IGROV-1 17.8 µM | PC-3 41.8 µM | OVCAR-3 33.7 µM | SNB-75 31 µM | ACHN 26.3 µM | COLO 205 22.3 µM | HCT-116 26.9 µM | UACC-62 23 µM

COC(=O)C(C(=O)C(=O)Nc1ccccc1C#N)c1nc2ccc([N+](=O)[O-])cc2nc1O (centres undefined)
inactive: SF-268 > 100 µM | NCI-H226 > 100 µM | KM12 37.8 µM | CCRF-CEM 94 µM | RXF 393 > 100 µM | UACC-257 > 100 µM | 786-0 > 100 µM | M14 > 100 µM | TK-10 > 100 µM | MDA-MB-435 > 100 µM | NCI/ADR-RES 92.5 µM | IGROV-1 94.4 µM | PC-3 > 100 µM | OVCAR-3 > 100 µM | SNB-75 > 100 µM | ACHN > 100 µM | COLO 205 > 100 µM | HCT-116 > 100 µM | UACC-62 > 100 µM

COc1ccc(NC(=O)/C(=N/NC(N)=S)C2C(=O)NC(=S)NC2=O)c(OC)c1
inactive: SF-268 > 100 µM | NCI-H226 > 100 µM | KM12 > 100 µM | CCRF-CEM 62.2 µM | UACC-257 > 100 µM | 786-0 > 100 µM | M14 > 100 µM | TK-10 > 100 µM | MDA-MB-435 > 100 µM | NCI/ADR-RES > 100 µM | IGROV-1 > 100 µM | PC-3 > 100 µM | OVCAR-3 > 100 µM | SNB-75 > 100 µM | ACHN > 100 µM | COLO 205 > 100 µM | HCT-116 > 100 µM | A498 > 100 µM | UACC-62 > 100 µM

O=c1c2c3c(sc2nc(S)n1-c1ccccc1)CCCc1ccc([N+](=O)[O-])cc1-3
inactive: SF-268 36.1 µM | NCI-H226 > 100 µM | KM12 > 100 µM | RXF 393 16.9 µM | UACC-257 29.2 µM | 786-0 54 µM | M14 > 100 µM | TK-10 > 100 µM | MDA-MB-435 49.5 µM | NCI/ADR-RES 25.8 µM | IGROV-1 14.2 µM | PC-3 59.7 µM | OVCAR-3 32.1 µM | ACHN 81.3 µM | COLO 205 > 100 µM | HCT-116 39.1 µM | A498 41 µM | UACC-62 26.7 µM

CCn1c(=O)c2c(=O)[nH][nH]c2c2ccccc21
inactive: NCI-H226 > 100 µM | KM12 > 100 µM | CCRF-CEM > 100 µM | UACC-257 > 100 µM | 786-0 > 100 µM | TK-10 > 100 µM | MDA-MB-435 > 100 µM | NCI/ADR-RES > 100 µM | IGROV-1 > 100 µM | PC-3 > 100 µM | OVCAR-3 > 100 µM | SNB-75 > 100 µM | ACHN > 100 µM | COLO 205 > 100 µM | HCT-116 > 100 µM | A498 > 100 µM

CC12OC3(C(O)C1O)C(C(=O)O[C@H]3CO[Si](C)(C)C(C)(C)C)C2S(=O)(=O)c1ccccc1 (some centres undefined)
inactive: SF-268 47.4 µM | NCI-H226 5.21 µM | KM12 33.3 µM | UACC-257 25.8 µM | 786-0 71.1 µM | M14 51.2 µM | TK-10 59.8 µM | MDA-MB-435 34.4 µM | NCI/ADR-RES 11.9 µM | IGROV-1 21 µM | PC-3 26.9 µM | OVCAR-3 40.6 µM | SNB-75 13.9 µM | ACHN 48.1 µM | HCT-116 61.5 µM | A498 > 100 µM | UACC-62 16.1 µM

S=C1Cc2c([nH]c3ccccc23)-c2ccccc2N1
inactive: SF-268 34.4 µM | NCI-H226 29.5 µM | KM12 > 100 µM | CCRF-CEM > 100 µM | RXF 393 18.3 µM | UACC-257 55 µM | 786-0 31.3 µM | M14 > 100 µM | TK-10 21.5 µM | MDA-MB-435 > 100 µM | NCI/ADR-RES 50 µM | IGROV-1 65.3 µM | PC-3 21.5 µM | OVCAR-3 32.6 µM | SNB-75 26.2 µM | ACHN 23.6 µM | COLO 205 > 100 µM | HCT-116 25.1 µM | UACC-62 72.3 µM

O=C(c1ccccn1)C1(N2CCCCC2)CCCCC1
inactive: SF-268 17.5 µM | NCI-H226 > 100 µM | KM12 > 100 µM | CCRF-CEM > 100 µM | UACC-257 > 100 µM | 786-0 > 100 µM | M14 > 100 µM | TK-10 > 100 µM | MDA-MB-435 > 100 µM | NCI/ADR-RES 46.5 µM | IGROV-1 87.7 µM | PC-3 > 100 µM | OVCAR-3 > 100 µM | ACHN > 100 µM | COLO 205 > 100 µM | HCT-116 > 100 µM | A498 > 100 µM | UACC-62 > 100 µM
